This experiment concerns the target T1, EP4 receptor (Homo sapiens, UniProt P35408).
T1 construct: BT549 breast cancer cells, express high endogenous EP4 levels and very low EP2 levels; host or cells: BT549 breast cancer cells
The experiment can be described thus: hEP4 cAMP assay (BT549 breast cancer cells, HTRF cAMP, PGE2 stimulation). Type of experiment: cell-based. The note with it: antagonistic activity, PGE2 6 nM (EC80). The essentials:
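BT549 cells, with endogenous EP4 and very low EP2, were preincubated 45 min at room temperature with compound in HBSS/HEPES/BSA buffer with 2 mM IBMX. They were then stimulated 30 min with 6 nM PGE2 (EC80). cAMP was measured by HTRF competitive immunoassay against a calibrator; IC50 from duplicate dose-response as % of DMSO control.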
For orientation: Changes in cAMP serve as a functional read-out for many G protein-coupled receptors.

T1 sequence (P35408 whole entry): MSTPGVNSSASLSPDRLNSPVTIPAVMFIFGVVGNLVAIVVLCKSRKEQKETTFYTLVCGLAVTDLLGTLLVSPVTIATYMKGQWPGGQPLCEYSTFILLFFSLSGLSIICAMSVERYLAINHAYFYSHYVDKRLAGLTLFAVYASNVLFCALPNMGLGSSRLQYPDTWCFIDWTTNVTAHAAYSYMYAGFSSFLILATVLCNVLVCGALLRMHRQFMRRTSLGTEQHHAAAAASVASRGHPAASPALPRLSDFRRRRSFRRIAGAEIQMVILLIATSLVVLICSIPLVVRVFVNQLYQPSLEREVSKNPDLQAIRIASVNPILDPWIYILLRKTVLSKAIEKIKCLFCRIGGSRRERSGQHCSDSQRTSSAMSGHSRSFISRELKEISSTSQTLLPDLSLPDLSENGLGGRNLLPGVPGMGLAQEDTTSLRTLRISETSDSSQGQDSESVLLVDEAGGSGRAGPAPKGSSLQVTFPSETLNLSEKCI

As to `Cc1cc(-c2cc(NCCc3c(C)oc4c(C)cc(F)cc34)ncn2)sc1C(=O)O` [Example 2, 5-{6-[2-(5-Fluoro-2,7-dimethyl-benzofuran-3-yl)-ethylamino]-pyrimidin-4-yl}-3-methyl-thiophene-2-carboxylic acid], it took 117 nM to reach half-maximal inhibition (IC50). The figure for `Cc1cc(-c2cc(NCCc3c(C)sc4c(C)cccc34)ncn2)sc1C(=O)O` [Example 3, 5-{6-[2-(2,7-Dimethyl-benzo[b]thiophen-3-yl)-ethylamino]-pyrimidin-4-yl}-3-methyl-thiophene-2-carboxylic acid] is 222 nM; for `Cc1cc(-c2cc(NCCc3c(C)oc4c(C)cc(Cl)cc34)ncn2)sc1C(=O)O` [Example 4, 5-{6-[2-(5-Chloro-2,7-dimethyl-benzofuran-3-yl)-ethylamino]-pyrimidin-4-yl}-3-methyl-thiophene-2-carboxylic acid] it is 394 nM. The figure for `CSc1cc(-c2cc(NCCc3c(C)sc4c(C)cccc34)ncn2)ccc1C(=O)O` [Example 14, 4-{6-[2-(2,7-Dimethyl-benzo[b]thiophen-3-yl)-ethylamino]-pyrimidin-4-yl}-2-methylsulfanyl-benzoic acid] is 105 nM. The figure for `COc1ccc(Cl)c2c(CCNc3cc(-c4ccc(C(=O)O)c(SC)c4)ncn3)c(C)sc12` [Example 15, 4-{6-[2-(4-Chloro-7-methoxy-2-methyl-benzo[b]thiophen-3-yl)-ethylamino]-pyrimidin-4-yl}-2-methylsulfanyl-benzoic acid] is 134 nM. Regarding `CSc1cc(-c2cc(NCCc3c(C)oc4c(C)cc(F)cc34)ncn2)ccc1C(=O)O` [Example 16, 4-{6-[2-(5-Fluoro-2,7-dimethyl-benzofuran-3-yl)-ethylamino]-pyrimidin-4-yl}-2-methylsulfanyl-benzoic acid], the IC50 (as a rule, the concentration needed to halve the response being measured) turned out to be 189 nM. On to `CSc1cc(-c2cc(NCCc3c(C)sc4c(C)cc(F)cc34)ncn2)ccc1C(=O)O` [Example 17, 4-{6-[2-(5-Fluoro-2,7-dimethyl-benzo[b]thiophen-3-yl)-ethylamino]-pyrimidin-4-yl}-2-methylsulfanyl-benzoic acid], for which inhibition was half-maximal at 243 nM (IC50). The figure for `CSc1cc(-c2cc(NCCc3c(C)oc4ccccc34)ncn2)ccc1C(=O)O` [Example 18, 4-{6-[2-(2-Methyl-benzofuran-3-yl)-ethylamino]-pyrimidin-4-yl}-2-methylsulfanyl-benzoic acid] is 414 nM; for `CSc1cc(-c2cc(NCCc3c(C)sc4c(C)ccc(Cl)c34)ncn2)ccc1C(=O)O` [Example 19, 4-{6-[2-(4-Chloro-2,7-dimethyl-benzo[b]thiophen-3-yl)-ethylamino]-pyrimidin-4-yl}-2-methylsulfanyl-benzoic acid] it is 468 nM. As for `CSc1cc(-c2cc(NCCc3c(C)sc4c(Cl)ccc(Cl)c34)ncn2)ccc1C(=O)O` [Example 20, 4-{6-[2-(4,7-Dichloro-2-methyl-benzo[b]thiophen-3-yl)-ethylamino]-pyrimidin-4-yl}-2-methylsulfanyl-benzoic acid], half-maximal inhibition (IC50) was put at 532 nM.

For `CSc1cc(-c2cc(NCCc3c(C)sc4c(C)c(F)ccc34)ncn2)ccc1C(=O)O` [Example 21, 4-{6-[2-(6-Fluoro-2,7-dimethyl-benzo[b]thiophen-3-yl)-ethylamino]-pyrimidin-4-yl}-2-methylsulfanyl-benzoic acid], the midpoint of inhibition, the IC50, lay at 564 nM.

In the case of `CCc1oc2c(C)cc(F)cc2c1CCNc1cc(-c2ccc(C(=O)O)c(SC)c2)ncn1` [Example 22, 4-{6-[2-(2-Ethyl-5-fluoro-7-methyl-benzofuran-3-yl)-ethylamino]-pyrimidin-4-yl}-2-methylsulfanyl-benzoic acid], half-maximal inhibition (IC50) required 661 nM. The figure for `CSc1cc(-c2cc(NCCc3c(C)sc4c(Cl)cc(F)cc34)ncn2)ccc1C(=O)O` [Example 23, 4-{6-[2-(7-Chloro-5-fluoro-2-methyl-benzo[b]thiophen-3-yl)-ethylamino]-pyrimidin-4-yl}-2-methylsulfanyl-benzoic acid] is 667 nM; for `CSc1cc(-c2cc(NCCc3c(C)sc4ccccc34)ncn2)ccc1C(=O)O` [Example 24, 4-{6-[2-(2-Methyl-benzo[b]thiophen-3-yl)-ethylamino]-pyrimidin-4-yl}-2-methylsulfanyl-benzoic acid] it is 795 nM. Turning to `CCOc1cc(-c2cc(NCCc3c(C)sc4c(C)ccc(F)c34)ncn2)sc1C(=O)O` [Example 25, 3-Ethoxy-5-{6-[2-(4-fluoro-2,7-dimethyl-benzo[b]thiophen-3-yl)-ethylamino]-pyrimidin-4-yl}-thiophene-2-carboxylic acid], the IC50 stood at 1 nM. As for `CCOc1cc(-c2cc(NCCc3c(C)sc4c(OC)ccc(F)c34)ncn2)sc1C(=O)O` [Example 28, 3-Ethoxy-5-{6-[2-(4-fluoro-7-methoxy-2-methyl-benzo[b]thiophen-3-yl)-ethylamino]-pyrimidin-4-yl}-thiophene-2-carboxylic acid], inhibition was half-maximal at 5 nM (IC50).

On to `CCOc1cc(-c2cc(NCCc3c(C)sc4c(C)ccc(Cl)c34)ncn2)sc1C(=O)O` [Example 29, 5-{6-[2-(4-Chloro-2,7-dimethyl-benzo[b]thiophen-3-yl)-ethylamino]-pyrimidin-4-yl}-3-ethoxy-thiophene-2-carboxylic acid], for which the IC50 was determined as 9 nM. The figure for `CCOc1cc(-c2cc(NCCc3c(C)sc4c(OC)ccc(Cl)c34)ncn2)sc1C(=O)O` [Example 30, 5-{6-[2-(4-Chloro-7-methoxy-2-methyl-benzo[b]thiophen-3-yl)-ethylamino]-pyrimidin-4-yl}-3-ethoxy-thiophene-2-carboxylic acid] is 11 nM; for `CCOc1cc(-c2cc(NCCc3c(C)oc4c(OC)cc(F)c(F)c34)ncn2)sc1C(=O)O` [Example 31, 5-{6-[2-(4,5-Difluoro-7-methoxy-2-methyl-benzofuran-3-yl)-ethylamino]-pyrimidin-4-yl}-3-ethoxy-thiophene-2-carboxylic acid] it is 13 nM. As to `CCOc1cc(-c2cc(NCCc3c(C)sc4c(C)cc(F)cc34)ncn2)sc1C(=O)O` [Example 32, 3-Ethoxy-5-{6-[2-(5-fluoro-2,7-dimethyl-benzo[b]thiophen-3-yl)-ethylamino]-pyrimidin-4-yl}-thiophene-2-carboxylic acid], the IC50 was determined as 13 nM.

In turn, `CCOc1cc(-c2cc(NCCc3csc4ccccc34)ncn2)sc1C(=O)O` [Example 33, 5-[6-(2-Benzo[b]thiophen-3-yl-ethylamino)-pyrimidin-4-yl]-3-ethoxy-thiophene-2-carboxylic acid] displayed an IC50 of 18 nM.

`CCOc1cc(-c2cc(NCCc3c(C)oc4c(OC)ccc(F)c34)ncn2)sc1C(=O)O` [Example 34, 3-Ethoxy-5-{6-[2-(4-fluoro-7-methoxy-2-methyl-benzofuran-3-yl)-ethylamino]-pyrimidin-4-yl}-thiophene-2-carboxylic acid] came in with an IC50 of 22 nM. The figure for `CCOc1cc(-c2cc(NCCc3c(C)oc4c(Cl)cccc34)ncn2)sc1C(=O)O` [Example 35, 5-{6-[2-(7-Chloro-2-methyl-benzofuran-3-yl)-ethylamino]-pyrimidin-4-yl}-3-ethoxy-thiophene-2-carboxylic acid] is 36 nM; for `CCOc1cc(-c2cc(NCCc3c(C)sc4c(C)cccc34)ncn2)sc1C(=O)O` [Example 36, 5-{6-[2-(2,7-Dimethyl-benzo[b]thiophen-3-yl)-ethylamino]-pyrimidin-4-yl}-3-ethoxy-thiophene-2-carboxylic acid] it is 44 nM; for `CCOc1cc(-c2cc(NCCc3c(C)oc4c(C)cc(F)cc34)ncn2)sc1C(=O)O` [Example 37, 3-Ethoxy-5-{6-[2-(5-fluoro-2,7-dimethyl-benzofuran-3-yl)-ethylamino]-pyrimidin-4-yl}-thiophene-2-carboxylic acid] it is 49 nM.

In turn, `CCOc1cc(-c2cc(NCCc3c(C)oc4c(OC)cc(Cl)cc34)ncn2)sc1C(=O)O` [Example 38, 5-{6-[2-(5-Chloro-7-methoxy-2-methyl-benzofuran-3-yl)-ethylamino]-pyrimidin-4-yl}-3-ethoxy-thiophene-2-carboxylic acid] came in with an IC50 of 80 nM.

Regarding `CCOc1cc(-c2cc(NCCc3c(CC)oc4c(C)cc(F)cc34)ncn2)sc1C(=O)O` [Example 39, 3-Ethoxy-5-{6-[2-(2-ethyl-5-fluoro-7-methyl-benzofuran-3-yl)-ethylamino]-pyrimidin-4-yl}-thiophene-2-carboxylic acid], the IC50 came out at 112 nM. The figure for `COc1cc(-c2cc(NCCc3c(C)sc4c(OC)ccc(Cl)c34)ncn2)ccc1C(=O)O` [Example 40, 4-{6-[2-(4-Chloro-7-methoxy-2-methyl-benzo[b]thiophen-3-yl)-ethylamino]-pyrimidin-4-yl}-2-methoxy-benzoic acid] is 433 nM; for `CCSc1cc(-c2cc(NCCc3c(C)sc4c(C)cccc34)ncn2)ccc1C(=O)O` [Example 42, 4-{6-[2-(2,7-Dimethyl-benzo[b]thiophen-3-yl)-ethylamino]-pyrimidin-4-yl}-2-ethylsulfanyl-benzoic acid] it is 224 nM; for `CCSc1cc(-c2cc(NCCc3c(C)sc4ccccc34)ncn2)ccc1C(=O)O` [Example 43, 2-Ethylsulfanyl-4-{6-[2-(2-methyl-benzo[b]thiophen-3-yl)-ethylamino]-pyrimidin-4-yl}-benzoic acid] it is 497 nM. The figure for `CCSc1cc(-c2cc(NCCc3c(C)oc4ccccc34)ncn2)ccc1C(=O)O` [Example 44, 2-Ethylsulfanyl-4-{6-[2-(2-methyl-benzofuran-3-yl)-ethylamino]-pyrimidin-4-yl}-benzoic acid] is 1380 nM; for `CCCc1cc(-c2cc(NCCc3c(C)sc4c(C)cc(F)cc34)ncn2)ccc1C(=O)O` [Example 45, 4-{6-[2-(5-Fluoro-2,7-dimethyl-benzo[b]thiophen-3-yl)-ethylamino]-pyrimidin-4-yl}-2-propyl-benzoic acid] it is 147 nM.
